Assay results published in US20250320193A1, “OXOISOINDOLINYL SUBSTITUTED PIPERIDINEDIONE DERIVATIVE AND USE THEREOF” (GLUETACS THERAPEUTICS (SHANGHAI) CO., LTD., priority 2022, published 2025).

How the values were obtained:
[1] = target: human Cereblon WT GST-tagged protein (Homo sapiens (Human), UniProt Q96SW2); experiment: CRBN-binding affinity, HTRF (CEREBLON BINDING kit, CISBIO); conditions: HTRF inhibitory activity
Method in brief: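 HTRF competition format: test compound displaces Thalidomide-Red from GST-tagged human Cereblon WT, detected with a Eu-labelled anti-GST antibody. Percent CRBN binding inhibition was derived from the 620 nm signal, normalized to solvent-control and protein-free blank wells.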

IKZF3 = IKZF3 (Homo sapiens (Human), UniProt Q96SW2+Q9UKT9); experiment: Western blot, substrate protein expression in hPBMC: IKZF3; format: cell-based; conditions: hPBMC, compound 500 nM, 24 hours, Western blot
Method in brief: (§1)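 hPBMC, 1×10^6 cells/mL, 24 h compound exposure; RIPA lysis, BCA protein assay, SDS-PAGE, NC membrane immunoblot. Densitometry vs internal control → % protein remaining; degradation % = 100% − remaining; DC50 = conc. at 50% of DMSO band signal.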

GSPT1 = GSPT1 (Homo sapiens (Human), UniProt P15170+Q96SW2); experiment: Western blot, substrate protein expression in hPBMC: GSPT1; format: cell-based; conditions: for substrate protein remaining % GSPT1: hPBMC, compound 500 nM, 24 hours, Western blot; for concentration at which GSPT1 protein was clearly/significantly degraded (Western blot, FIG. 1): hPBMCs
Method in brief: as §1

IKZF1 = IKZF1 (Homo sapiens (Human), UniProt Q13422+Q96SW2); experiment: Western blot, substrate protein expression in hPBMC: IKZF1; format: cell-based; conditions: hPBMC, compound 500 nM, 24 hours, Western blot
Method in brief: as §1

Sequence of GSPT1 (P15170 whole entry): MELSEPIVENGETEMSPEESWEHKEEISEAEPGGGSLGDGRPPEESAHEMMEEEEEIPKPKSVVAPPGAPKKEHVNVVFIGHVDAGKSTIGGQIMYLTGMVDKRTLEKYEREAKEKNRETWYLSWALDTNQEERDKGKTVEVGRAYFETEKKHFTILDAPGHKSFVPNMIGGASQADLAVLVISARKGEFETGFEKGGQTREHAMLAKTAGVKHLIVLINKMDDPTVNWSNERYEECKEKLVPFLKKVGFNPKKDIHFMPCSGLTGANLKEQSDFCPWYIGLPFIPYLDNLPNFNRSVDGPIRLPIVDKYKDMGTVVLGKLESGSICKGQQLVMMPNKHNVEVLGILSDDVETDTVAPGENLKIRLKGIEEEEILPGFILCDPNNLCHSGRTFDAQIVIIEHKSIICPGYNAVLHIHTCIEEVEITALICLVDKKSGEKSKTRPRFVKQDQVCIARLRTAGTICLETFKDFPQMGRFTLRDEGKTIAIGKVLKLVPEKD
Sequence of GSPT1 (Q96SW2 whole entry): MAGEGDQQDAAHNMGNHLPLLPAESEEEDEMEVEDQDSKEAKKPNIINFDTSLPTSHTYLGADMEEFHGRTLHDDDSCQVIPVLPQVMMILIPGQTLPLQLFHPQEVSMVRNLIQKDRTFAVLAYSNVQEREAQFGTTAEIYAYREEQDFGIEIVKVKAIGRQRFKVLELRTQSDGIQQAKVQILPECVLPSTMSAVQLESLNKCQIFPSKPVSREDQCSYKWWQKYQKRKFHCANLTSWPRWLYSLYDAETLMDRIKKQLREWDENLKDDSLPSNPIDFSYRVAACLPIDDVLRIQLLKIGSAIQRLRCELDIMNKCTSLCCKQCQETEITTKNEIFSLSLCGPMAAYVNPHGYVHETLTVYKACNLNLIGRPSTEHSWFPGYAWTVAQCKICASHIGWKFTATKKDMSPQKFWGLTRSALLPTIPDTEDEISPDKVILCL
Sequence of GSPT1 (Q16531 whole entry partner): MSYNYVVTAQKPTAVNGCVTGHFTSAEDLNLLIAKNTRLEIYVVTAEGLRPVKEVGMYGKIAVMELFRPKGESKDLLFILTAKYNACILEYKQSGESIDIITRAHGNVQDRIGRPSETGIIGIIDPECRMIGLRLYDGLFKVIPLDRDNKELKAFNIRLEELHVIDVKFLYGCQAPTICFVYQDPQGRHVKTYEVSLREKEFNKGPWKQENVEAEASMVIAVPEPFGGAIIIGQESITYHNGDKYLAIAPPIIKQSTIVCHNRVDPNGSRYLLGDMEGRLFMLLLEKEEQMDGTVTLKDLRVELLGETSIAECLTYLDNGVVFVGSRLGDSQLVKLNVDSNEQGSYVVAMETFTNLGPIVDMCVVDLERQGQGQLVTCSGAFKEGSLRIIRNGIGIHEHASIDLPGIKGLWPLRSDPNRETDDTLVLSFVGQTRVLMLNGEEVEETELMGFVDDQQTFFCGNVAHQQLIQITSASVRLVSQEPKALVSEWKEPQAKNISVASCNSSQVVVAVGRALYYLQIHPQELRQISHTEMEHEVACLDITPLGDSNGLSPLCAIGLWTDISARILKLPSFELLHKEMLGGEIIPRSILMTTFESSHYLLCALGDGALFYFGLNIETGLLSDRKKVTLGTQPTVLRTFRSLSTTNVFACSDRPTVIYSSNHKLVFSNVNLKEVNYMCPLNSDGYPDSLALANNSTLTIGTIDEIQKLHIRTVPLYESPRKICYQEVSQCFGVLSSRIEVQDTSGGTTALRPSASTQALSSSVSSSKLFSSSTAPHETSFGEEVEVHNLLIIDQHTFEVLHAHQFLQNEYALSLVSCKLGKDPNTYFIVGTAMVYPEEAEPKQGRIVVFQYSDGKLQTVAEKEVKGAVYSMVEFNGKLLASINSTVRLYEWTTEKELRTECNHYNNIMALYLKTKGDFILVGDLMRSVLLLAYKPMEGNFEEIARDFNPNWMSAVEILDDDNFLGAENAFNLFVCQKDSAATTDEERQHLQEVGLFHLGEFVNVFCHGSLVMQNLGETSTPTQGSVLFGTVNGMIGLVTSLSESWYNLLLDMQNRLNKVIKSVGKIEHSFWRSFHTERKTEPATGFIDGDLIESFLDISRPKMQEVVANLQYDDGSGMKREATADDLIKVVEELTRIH
Sequence of IKZF1 (Q13422 whole entry): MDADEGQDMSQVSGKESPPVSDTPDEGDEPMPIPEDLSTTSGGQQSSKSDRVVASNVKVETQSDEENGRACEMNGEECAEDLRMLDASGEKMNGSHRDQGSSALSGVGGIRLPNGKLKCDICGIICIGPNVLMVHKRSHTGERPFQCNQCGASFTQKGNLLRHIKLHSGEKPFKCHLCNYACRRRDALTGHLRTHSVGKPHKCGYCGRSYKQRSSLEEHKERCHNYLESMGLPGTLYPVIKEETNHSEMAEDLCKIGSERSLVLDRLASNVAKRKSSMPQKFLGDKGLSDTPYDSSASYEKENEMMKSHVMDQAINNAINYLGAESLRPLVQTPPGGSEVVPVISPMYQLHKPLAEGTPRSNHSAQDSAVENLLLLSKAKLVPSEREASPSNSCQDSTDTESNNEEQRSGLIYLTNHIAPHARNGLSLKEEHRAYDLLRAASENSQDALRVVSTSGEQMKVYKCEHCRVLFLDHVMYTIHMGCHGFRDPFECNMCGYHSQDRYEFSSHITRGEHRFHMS
Sequence of IKZF1 (Q96SW2 whole entry): as the sequence (Q96SW2 whole entry) above
Sequence of IKZF1 (Q16531 whole entry partner): as the sequence (Q16531 whole entry partner) above
Sequence of IKZF3 (Q9UKT9 whole entry): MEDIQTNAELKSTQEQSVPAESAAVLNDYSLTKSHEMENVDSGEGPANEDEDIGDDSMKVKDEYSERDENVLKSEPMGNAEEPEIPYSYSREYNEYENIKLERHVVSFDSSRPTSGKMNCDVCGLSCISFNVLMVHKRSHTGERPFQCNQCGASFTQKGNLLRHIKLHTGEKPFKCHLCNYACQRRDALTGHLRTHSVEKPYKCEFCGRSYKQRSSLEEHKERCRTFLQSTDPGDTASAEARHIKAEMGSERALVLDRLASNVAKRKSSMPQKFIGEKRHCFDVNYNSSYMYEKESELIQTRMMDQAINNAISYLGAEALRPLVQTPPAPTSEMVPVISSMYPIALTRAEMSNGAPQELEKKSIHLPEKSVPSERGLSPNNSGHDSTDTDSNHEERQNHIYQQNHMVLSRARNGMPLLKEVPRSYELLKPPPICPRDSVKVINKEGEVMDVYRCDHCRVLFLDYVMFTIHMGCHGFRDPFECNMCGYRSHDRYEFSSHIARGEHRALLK
Sequence of IKZF3 (Q96SW2 whole entry): as the sequence (Q96SW2 whole entry) above
Sequence of IKZF3 (Q16531 whole entry partner): as the sequence (Q16531 whole entry partner) above
Sequence of human Cereblon WT GST-tagged protein (Q96SW2 whole entry): as the sequence (Q96SW2 whole entry) above

| SMILES | IC50 [1] | substrate protein remaining % IKZF3 (IKZF3) | substrate protein remaining % GSPT1 (GSPT1) | concentration at which GSPT1 protein was clearly/significantly degraded (Western blot, FIG. 1) (GSPT1) | substrate protein remaining % IKZF1 (IKZF1) |
| --- | --- | --- | --- | --- | --- |
| O=C1CCC(N2Cc3cc(C(=O)N4CCN(C(c5ccccc5)c5ccccc5)CC4)ccc3C2=O)C(=O)N1 (stereo not drawn) [GT-05689, 3-(5-(4-benzhydrylpiperazine-1-carbonyl)-1-oxoisoindolin-2-yl)piperidine-2,6-dione] | 500 to 1000 nM | B (B represents substrate protein remaining % > 50%) | A (A represents 0% ≤ substrate protein remaining % ≤ 50%) | below 50 nM | B (B represents substrate protein remaining % > 50%) |
| O=C1CCC(N2Cc3c(ccc(CN4CCN(C(c5ccccn5)c5ccccn5)CC4)c3F)C2=O)C(=O)N1 (stereo not drawn) [GT-05713, 3-(5-((4-(di(pyridin-2-yl)methyl)piperazin-1-yl)methyl)-4-fluoro-1-oxoisoindolin-2-yl)piperidine-2,6-dione] | 500 to 1000 nM | B (B represents substrate protein remaining % > 50%) | A (A represents 0% ≤ substrate protein remaining % ≤ 50%) | – | B (B represents substrate protein remaining % > 50%) |
| O=C1CCC(N2C(=O)c3ccc(CN4CC5CCC4CN5C(c4ccccc4)c4ccccc4)cc3C2=O)C(=O)N1 (stereo not drawn) [GT-05730, 5-((5-benzhydryl-2,5-diazabicyclo[2.2.2]octan-2-yl)methyl)-2-(2,6-dioxopiperidin-3-yl) isoindoline-1,3-dione] | 1000 to 1900 nM | B (B represents substrate protein remaining % > 50%) | A (A represents 0% ≤ substrate protein remaining % ≤ 50%) | – | B (B represents substrate protein remaining % > 50%) |
| O=C1CCC(N2Cc3cc(CN4C5CC4CN(C(c4ccccc4)c4ccccc4)C5)c(F)cc3C2=O)C(=O)N1 (stereo not drawn) [GT-05737, 3-(5-((3-benzhydryl-3,6-diazabicyclo[3.1.1]heptan-6-yl)methyl)-6-fluoro-1-oxoisoindolin-2-yl)piperidine-2,6-dione] | 500 to 1000 nM | B (B represents substrate protein remaining % > 50%) | A (A represents 0% ≤ substrate protein remaining % ≤ 50%) | – | B (B represents substrate protein remaining % > 50%) |
| O=C1CCC(N2Cc3cc(CN4CCCN(C(c5ccccc5)c5ccccc5)CC4)c(F)cc3C2=O)C(=O)N1 (stereo not drawn) [GT-05738, 3-(5-((4-benzhydryl-1,4-diazepan-1-yl)methyl)-6-fluoro-1-oxoisoindolin-2-yl)piperidine-2,6-dione] | 1000 to 1900 nM | B (B represents substrate protein remaining % > 50%) | A (A represents 0% ≤ substrate protein remaining % ≤ 50%) | – | B (B represents substrate protein remaining % > 50%) |
| O=C1CCC(N2Cc3cc(CC4CCN(C(c5ccccc5)c5ccccc5)CC4)ccc3C2=O)C(=O)N1 (stereo not drawn) [GT-05744, 3-(5-((1-benzhydrylpiperidin-4-yl)methyl)-1-oxoisoindolin-2-yl)piperidine-2,6-dione] | < 500 nM | B (B represents substrate protein remaining % > 50%) | A (A represents 0% ≤ substrate protein remaining % ≤ 50%) | – | B (B represents substrate protein remaining % > 50%) |
| O=C1CCC(N2Cc3cc(C(=O)N4CCN(C(c5ccccc5)c5ccccc5)CC4)cc(F)c3C2=O)C(=O)N1 (stereo not drawn) [GT-05850, 3-(5-(4-benzhydrylpiperazine-1-carbonyl)-7-fluoro-1-oxoisoindolin-2-yl)piperidine-2,6-dione] | 1000 to 1900 nM | B (B represents substrate protein remaining % > 50%) | A (A represents 0% ≤ substrate protein remaining % ≤ 50%) | – | A (A represents 0% ≤ substrate protein remaining % ≤ 50%) |
| O=C1CCC(N2Cc3cc(CN4CCC(N(c5ccccc5)c5ccccn5)CC4)cc(F)c3C2=O)C(=O)N1 (stereo not drawn) [GT-05858, 3-(7-fluoro-1-oxo-5-((4-(phenyl(pyridin-2-yl)amino)piperidin-1-yl)methyl)isoindolin-2-yl)piperidine-2,6-dione] | 500 to 1000 nM | B (B represents substrate protein remaining % > 50%) | A (A represents 0% ≤ substrate protein remaining % ≤ 50%) | below 50 nM | B (B represents substrate protein remaining % > 50%) |

Second part, led by results:

| IC50 [1] | SMILES | substrate protein remaining % IKZF3 (IKZF3) | substrate protein remaining % GSPT1 (GSPT1) | concentration at which GSPT1 protein was clearly/significantly degraded (Western blot, FIG. 1) (GSPT1) | substrate protein remaining % IKZF1 (IKZF1) |
| --- | --- | --- | --- | --- | --- |
| 1000 to 1900 nM | O=C1CCC(N2Cc3cc(C(=O)N4CCN(C(c5ccccc5)c5ccccn5)CC4)ccc3C2=O)C(=O)N1 (stereo not drawn) [GT-05854, 3-(1-oxo-5-(4-(phenyl(pyridin-2-yl)methyl)piperazine-1-carbonyl)isoindolin-2-yl)piperidine-2,6-dione] | B (B represents substrate protein remaining % > 50%) | A (A represents 0% ≤ substrate protein remaining % ≤ 50%) | – | B (B represents substrate protein remaining % > 50%) |
| < 500 nM | O=C1CCC(N2Cc3cc(CC4CN(C(c5ccccc5)c5ccccc5)C4)ccc3C2=O)C(=O)N1 (stereo not drawn) [GT-05859, 3-(5-((1-benzhydrylazetidin-3-yl)methyl)-1-oxoisoindolin-2-yl)piperidine-2,6-dione] | B (B represents substrate protein remaining % > 50%) | A (A represents 0% ≤ substrate protein remaining % ≤ 50%) | – | A (A represents 0% ≤ substrate protein remaining % ≤ 50%) |
| 500 to 1000 nM | O=C1CCC(N2Cc3cc(C4CCN(C(c5ccccc5)c5ccccc5)CC4)ccc3C2=O)C(=O)N1 (stereo not drawn) [GT-05868, 3-(5-(1-benzhydrylpiperidin-4-yl)-1-oxoisoindolin-2-yl)piperidine-2,6-dione] | A (A represents 0% ≤ substrate protein remaining % ≤ 50%) | A (A represents 0% ≤ substrate protein remaining % ≤ 50%) | – | A (A represents 0% ≤ substrate protein remaining % ≤ 50%) |
| 1000 to 1900 nM | O=C1CCC(N2Cc3cc(C(=O)N4CCN(C(c5ccccc5)c5ccccn5)CC4)cc(F)c3C2=O)C(=O)N1 (stereo not drawn) [GT-05877, 3-(7-fluoro-1-oxo-5-(4-(phenyl(pyridin-2-yl)methyl)piperazine-1-carbonyl)isoindolin-2-yl)piperidine-2,6-dione] | B (B represents substrate protein remaining % > 50%) | A (A represents 0% ≤ substrate protein remaining % ≤ 50%) | – | B (B represents substrate protein remaining % > 50%) |
| 500 to 1000 nM | O=C1CCC(N2Cc3cc(C(=O)N4CCN(C(c5ccc(F)cc5)c5ccc(F)cc5)CC4)ccc3C2=O)C(=O)N1 (stereo not drawn) [GT-05881, 3-(5-(4-(bis(4-fluorophenyl)methyl)piperazine-1-carbonyl)-1-oxoisoindolin-2-yl)piperidine-2,6-dione] | B (B represents substrate protein remaining % > 50%) | A (A represents 0% ≤ substrate protein remaining % ≤ 50%) | – | B (B represents substrate protein remaining % > 50%) |
